Laboratory results published in patent US10981932B2, “Macrocyclic indole derivatives” (Bayer Aktiengesellschaft, priority 2016, dated 2021).
Where two headings read alike, the source gives them in different places.

Columns and labels:
SUDHL10 [1] = test: Induction of cytotoxicity (CellTiter-Glo, 5 h), SUDHL10
A2780 = test: Anti-proliferative effect (CellTiter-Glo, 72 h), A2780; type: cell-based; details: A2780 cells, median, read-out: IC50 antiproliferation assay A2780 [M] (median)
Method in brief: (§1)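 Anti-proliferative activity is derived from ATP-based luminescence (CellTiter-Glo) in cells exposed to compound for 72 h at 37 °C, set against a time zero plate read at seeding.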

SUDHL5 [2] = test: Induction of cytotoxicity (CellTiter-Glo, 5 h), SUDHL5
SUDHL10 [3] = test: Induction of caspase-3/7 activity (Caspase-Glo 3/7), SUDHL10; type: cell-based; details: caspase-3/7 induction, SUDHL10 cells, 3 h treatment, median
Method in brief: (§2)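 Caspase-Glo 3/7 luminescence measured after 3 h compound exposure at 37 °C in SUDHL10 and SUDHL5 cells. EC50 values come from background-corrected signals, with curve bottom set to 1 and plateau set to maximal induction by the reference compound.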

OPM2 = test: Anti-proliferative effect (CellTiter-Glo, 72 h), OPM2; type: cell-based; details: OPM2 cells, median, read-out: IC50 antiproliferation assay OPM2 [M] (median)
Method in brief: as §1

SUDHL5 [4] = test: Induction of caspase-3/7 activity (Caspase-Glo 3/7), SUDHL5; type: cell-based; details: caspase-3/7 induction, SUDHL5 cells, 3 h treatment, median
Method in brief: as §2

SUDHL10 [5] = test: Anti-proliferative effect (CellTiter-Glo, 72 h), SUDHL10; type: cell-based; details: SUDHL10 cells, antiproliferation, 72 h incubation, median, read-out: Antiproli SUDHL10 [M] (median)
Method in brief: as §1

MCL-1 = MCL-1 (Homo sapiens, UniProt Q07820); test: Protein-protein interaction assay MCL-1/Noxa BH3 peptide (MCL-1 assay), TR-FRET; type: binding; details: MBP-MCL-1 / Noxa BH3-derived peptide, median
MCL-1, sequence (Q07820 whole entry): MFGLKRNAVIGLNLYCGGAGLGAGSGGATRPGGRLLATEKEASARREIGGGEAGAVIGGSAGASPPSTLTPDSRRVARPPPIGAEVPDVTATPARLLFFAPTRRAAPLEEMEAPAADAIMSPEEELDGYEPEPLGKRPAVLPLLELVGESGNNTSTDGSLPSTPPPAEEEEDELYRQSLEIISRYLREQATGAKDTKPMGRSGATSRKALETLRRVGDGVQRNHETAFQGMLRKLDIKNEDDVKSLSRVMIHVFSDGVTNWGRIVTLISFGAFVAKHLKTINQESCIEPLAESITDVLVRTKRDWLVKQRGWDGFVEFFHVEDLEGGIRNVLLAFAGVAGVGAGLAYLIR
Method in brief: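 MBP-MCL-1 (1 nM final) was preincubated 10 min at 22 °C with compounds (11 concentrations, 0.1 nM–20 μM, duplicates) in Tris pH 7 buffer with NaCl, KF, Tween-20, DTT and BGG. After 1 h at 22 °C in the dark plus overnight at 4 °C, anti-MBP Eu-cryptate/streptavidin-XL665 TR-FRET was read; IC50 came from a 4-parameter fit.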

SUDHL5 [6] = test: Anti-proliferative effect (CellTiter-Glo, 72 h), SUDHL5; type: cell-based; details: SUDHL5 cells, antiproliferation, 72 h incubation, median, read-out: Antiproli SUDHL5 [M] (median)
Method in brief: as §1

[7] = Homo sapiens, SU-DHL10, 5 h, read-out: Cytotox SUDHL10 [M] (median), SUDHL10 cells, cytotoxicity induction, CellTiter-Glo, 5 h incubation, median
[8] = Homo sapiens, SU-DHL-5, 5 h, read-out: Cytotox SUDHL5 [M] (median), SUDHL5 cells, cytotoxicity induction, CellTiter-Glo, 5 h incubation, median

IC50 (A2780; Homo sapiens, A2780, 72 h)	EC50 (SUDHL10 [3]; Homo sapiens, SU-DHL10, 3 h)	EC50 (SUDHL5 [4]; Homo sapiens, SU-DHL-5, 3 h)	IC50 (SUDHL10 [5]; Homo sapiens, SU-DHL10, 72 h)	IC50 (MCL-1)	IC50 (SUDHL5 [6]; Homo sapiens, SU-DHL-5, 72 h)	IC50 (A2780)	EC50 (SUDHL10 [3])	EC50 (SUDHL5 [4])	IC50 (SUDHL10 [5])	IC50 (SUDHL5 [6])	Structure (SMILES)	IC50 (SUDHL10 [1]; [7])	IC50 (SUDHL5 [2]; [8])	IC50 (OPM2; Homo sapiens, OPM-2, 72 h)	IC50 (SUDHL10 [1]; read-out: Cytotox SUDHL10 [M] (median), SUDHL10 cells, cytotoxicity induction, CellTiter-Glo, 5 h incubation, median)	IC50 (SUDHL5 [2]; read-out: Cytotox SUDHL5 [M] (median), SUDHL5 cells, cytotoxicity induction, CellTiter-Glo, 5 h incubation, median)	IC50 (OPM2)
2.26e-05 M	18.1 µM	5.9 µM	4.49e-06 M	0.0131 µM	4.17e-06 M	–	–	–	–	–	Cc1c2c(nn1C)COC/C=C\Cn1c(C(=O)O)c(CCCOc3cccc4ccccc34)c3cccc-2c31 (racemic) [Example 062, (rac)-(11Z)-2,3-dimethyl-7-[3-(naphthalen-1-yloxy)propyl]-2,10,13,15-tetrahydropyrazolo[4′,3′:9,10][1,6]oxazacycloundecino[8,7,6-hi]indole-8-carboxylic Acid]	2.43e-05 M	6.67e-06 M	1.67e-05 M	–	–	–
2.02e-05 M	16.5 µM	7.71 µM	5.35e-06 M	0.0106 µM	3.98e-06 M	–	–	–	–	–	Cc1c2c(nn1C)COCCCn1c(C(=O)O)c(CCCOc3cccc4ccccc34)c3cccc-2c31 (racemic) [Example 063, (rac)-10,11-dimethyl-1-[3-(naphthalen-1-yloxy)propyl]-5,6,8,10-tetrahydro-4H-pyrazolo[4′,3′:8,9][1,5]oxazecino[7,6,5-hi]indole-2-carboxylic Acid]	1.16e-05 M	7.73e-06 M	1.36e-05 M	–	–	–
1.87e-05 M	8.62 µM	5.4 µM	8.58e-06 M	0.00652 µM	2e-06 M	–	–	–	–	–	Cc1ccc2c(CCCOc3cccc4ccccc34)c(C(=O)O)n3c2c1-c1c(nn(C)c1C)COC/C=C\C3 (racemic) [Example 070, (rac)-(11Z)-2,3,4-trimethyl-7-[3-(naphthalen-1-yloxy)propyl]-2,10,13,15-tetrahydropyrazolo[4′,3′:9,10][1,6]oxazacycloundecino[8,7,6-hi]indole-8-carboxylic Acid]	9.59e-06 M	4.28e-06 M	1.34e-05 M	–	–	–
1.89e-05 M	11.1 µM	5.04 µM	2.59e-06 M	0.00412 µM	6.23e-06 M	–	–	–	–	–	COCCn1nc2c(c1C)-c1cccc3c(CCCOc4cccc5ccccc45)c(C(=O)O)n(c13)C/C=C\COC2 (racemic) [Example 071, (rac)-(11Z)-2-(2-methoxyethyl)-3-methyl-7-[3-(naphthalen-1-yloxy)propyl]-2,10,13,15-tetrahydropyrazolo[4′,3′:9,10][1,6]oxazacycloundecino[8,7,6-hi]indole-8-carboxylic Acid]	1.76e-05 M	7.45e-06 M	1.3e-05 M	–	–	–
9.51e-06 M	4.91 µM	4.54 µM	5.65e-06 M	0.0034 µM	1.11e-06 M	–	–	–	–	–	Cc1ccc2c(CCCOc3cccc4ccccc34)c(C(=O)O)n3c2c1-c1c(nn(C)c1C)CN(C)CCC3 (racemic) [Example 072, (rac)-7,10,11,12-tetramethyl-1-[3-(naphthalen-1-yloxy)propyl]-4,5,6,7,8,10-hexahydropyrazolo[3′,4′:7,8][1,5]diazecino[9,10,1-hi]indole-2-carboxylic Acid]	6.12e-06 M	3.43e-06 M	8.23e-06 M	–	–	–
1.97e-05 M	6.36 µM	3.25 µM	2.63e-06 M	0.00171 µM	3.21e-06 M	–	–	–	–	–	Cc1ccc2c(CCCOc3cccc4ccccc34)c(C(=O)O)n3c2c1-c1c(nn(C)c1C)COCCCC3 (racemic) [Example 075, (rac)-2,3,4-trimethyl-7-[3-(naphthalen-1-yloxy)propyl]-2,10,11,12,13,15-hexahydropyrazolo[4′,3′:9,10][1,6]oxazacycloundecino[8,7,6-hi]indole-8-carboxylic Acid]	8.23e-06 M	3.66e-06 M	1.1e-05 M	–	–	–
1.74e-05 M	19 µM	7.21 µM	9.62e-06 M	0.015 µM	9.61e-06 M	–	–	–	–	–	CCn1nc2c(c1C1CC1)-c1cccc3c(CCCOc4cccc5ccccc45)c(C(=O)O)n(c13)CCCCOC2 (racemic) [Example 081, (rac)-3-Cyclopropyl-2-ethyl-7-[3-(naphthalen-1-yloxy)propyl]-2,10,11,12,13,15-hexahydropyrazolo[4′3′:9,10][1,6]oxazacycloundecino[8,7,6-hi]indole-8-carboxylic Acid]	2.26e-05 M	7.06e-06 M	1.44e-05 M	–	–	–
1.77e-05 M	14.9 µM	7.55 µM	3.87e-06 M	0.00309 µM	7.19e-06 M	–	–	–	–	–	COCCn1nc2c(c1C1CC1)-c1cccc3c(CCCOc4cccc5ccccc45)c(C(=O)O)n(c13)CCCCOC2 (racemic) [Example 084, (rac)-3-Cycopropyl-2-(2-methoxyethyl)-7-[3-(naphthalen-1-yloxy)propyl]-2,10,11,12,13,15-hexahydropyrazolo[4′,3′:9,10][1,6]oxazacycloundecino[8,7,6-hi]indole-8-carboxylic Acid]	2.06e-05 M	6.6e-06 M	2.67e-05 M	–	–	–
1.1e-05 M	13.4 µM	11.2 µM	3.05e-06 M	0.0187 µM	6.64e-06 M	–	–	–	–	–	CN1CCCn2c(C(=O)O)c(CCCOc3cccc4ccccc34)c3cccc(c32)-c2c(CCN3CCOCC3)nn(C)c2C1 (racemic) [Example 124, (rac)-7,9-dimethyl-11-[2-(morpholin-4-yl)ethyl]-1-[3-(naphthalen-1-yloxy)propyl]-4,5,6,7,8,9-hexahydropyrazolo[3′,4′:7,8][1,5]diazecino[9,10,1-hi]indole-2-carboxylic Acid]	1.61e-05 M	1.71e-05 M	1.48e-05 M	–	–	–
1.34e-05 M	> 33 µM	25.4 µM	6e-06 M	0.0335 µM	1.78e-05 M	–	–	–	–	–	Cn1nc(CN2CCOCC2)c2c1COCC=CCn1c(C(=O)O)c(CCCOc3cccc4ccccc34)c3cccc-2c31 (racemic) [Example 132, (rac)-(E/Z)-1-methyl-3-(morpholin-4-ylmethyl)-7-[3-(naphthalen-1-yloxy)propyl]-1,10,13,15-tetrahydropyrazolo[4′,3′:9,10][1,6]oxazacycloundecino[8,7,6-hi]indole-8-carboxylic Acid]	1.69e-05 M	2.81e-05 M	1.17e-05 M	–	–	–
> 3.3e-05 M	> 33 µM	12.1 µM	1.01e-05 M	0.0147 µM	7.26e-06 M	–	–	–	–	–	Cn1nc(CN2CCOCC2)c2c1COCCCCn1c(C(=O)O)c(CCCOc3cccc4ccccc34)c3cccc-2c31 (racemic) [Example 135, (rac)-1-methyl-3-(morpholin-4-ylmethyl)-7-[3-(naphthalen-1-yloxy)propyl]-1,10,11,12,13,15-hexahydropyrazolo[4′,3′:9,10][1,6]oxazacycloundecino[8,7,6-hi]indole-8-carboxylic Acid]	> 3.3e-05 M	1.06e-05 M	> 3.3e-05 M	–	–	–
–	–	–	–	0.0193 µM	–	6.4e-06 M	9.54 µM	9.12 µM	3.99e-06 M	3.91e-06 M	CN1CCCn2c(C(=O)O)c(CCCOc3cccc4ccccc34)c3cccc(c32)-c2c(COc3ccc(N4CCN(S(C)(=O)=O)CC4)cc3)nn(C)c2C1 (single isomer, unassigned) [Example 1-47, (−)-7,9-dimethyl-11-({4-[4-(methylsulfonyl)piperazin-1-yl]phenoxy}methyl)-1-[3-(naphthalen-1-yloxy)propyl]-4,5,6,7,8,9-hexahydropyrazolo[3′,4′:7,8][1,5]diazecino[9,10,1-hi]indole-2-carboxylic Acid]	–	–	–	1.32e-05 M	1.08e-05 M	8.35e-06 M
